Measurements published in patent publication US20060003920A1, “LAT1 transporters expressed in cancer cells” (Xenoport, Inc., priority 2004, published 2006).

Biological target: T1, LAT1 and 4F2HC (Homo sapiens, UniProt Q01650)
T1 construct: expressed in transfected cells; host or cells: Xenopus oocytes, injected with in vitro transcribed cRNA
Assay: 14C-gabapentin uptake into Xenopus oocytes expressing LAT1 and 4F2HC
Format: cell-based
Conditions: Xenopus oocytes injected with LAT1 and 4F2HC cRNA vs noninjected controls
Source text: To assess transport function of a specific transporter protein, it can be desirable to clone the cDNA and express the protein in cells that have low endogenous transport activity. Human LAT1 was cloned by PCR, fully sequenced, and subcloned into plasmids that can be used for expression in mammalian cells or Xenopus oocytes. The co-subunit required for LAT1 function, 4F2HC (Genbank accession AB018010), was also cloned and sequenced. Unless otherwise noted, 4F2HC was also co-expressed in each heterologous system described in the examples. […] For expression in Xenopus oocytes, in vitro LAT1 and 4F2HC cRNA was prepared and injected into defoliculated oocytes.

T1 sequence (Q01650 whole entry): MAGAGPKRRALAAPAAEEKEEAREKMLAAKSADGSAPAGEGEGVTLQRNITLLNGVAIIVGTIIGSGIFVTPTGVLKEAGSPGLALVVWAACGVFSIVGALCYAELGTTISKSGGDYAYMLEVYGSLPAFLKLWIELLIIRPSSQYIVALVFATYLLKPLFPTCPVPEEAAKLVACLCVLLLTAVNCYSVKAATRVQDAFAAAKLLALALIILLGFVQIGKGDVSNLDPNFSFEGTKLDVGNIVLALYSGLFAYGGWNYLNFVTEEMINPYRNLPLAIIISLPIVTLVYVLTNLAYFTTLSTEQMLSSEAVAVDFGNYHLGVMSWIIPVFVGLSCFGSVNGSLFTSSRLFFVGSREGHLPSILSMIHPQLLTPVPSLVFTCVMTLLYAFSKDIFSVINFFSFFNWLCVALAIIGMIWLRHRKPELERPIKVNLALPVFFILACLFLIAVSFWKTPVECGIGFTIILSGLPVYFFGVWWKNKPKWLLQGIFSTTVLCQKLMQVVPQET
T1 sequence (P08195 102-630 partner): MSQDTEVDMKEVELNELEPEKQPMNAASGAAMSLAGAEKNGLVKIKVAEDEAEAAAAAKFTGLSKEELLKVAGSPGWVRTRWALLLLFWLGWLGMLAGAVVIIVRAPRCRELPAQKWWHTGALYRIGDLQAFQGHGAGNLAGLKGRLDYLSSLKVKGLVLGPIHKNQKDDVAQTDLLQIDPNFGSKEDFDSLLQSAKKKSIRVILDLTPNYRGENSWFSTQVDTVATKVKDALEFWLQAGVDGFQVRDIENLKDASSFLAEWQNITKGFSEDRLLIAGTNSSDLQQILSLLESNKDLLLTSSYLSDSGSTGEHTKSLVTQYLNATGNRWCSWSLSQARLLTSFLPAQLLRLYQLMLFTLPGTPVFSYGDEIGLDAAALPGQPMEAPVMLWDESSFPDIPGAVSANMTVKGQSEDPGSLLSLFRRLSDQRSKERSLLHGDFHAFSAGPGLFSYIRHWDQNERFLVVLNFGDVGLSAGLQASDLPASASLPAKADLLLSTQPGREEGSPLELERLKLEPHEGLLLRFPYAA

NCC1(CC(=O)O)CCCCC1 [Gabapentin]
14C-gabapentin uptake into oocytes: higher levels of 14C-gabapentin uptake than noninjected controls
